Data from US20230285405A1, “Pharmaceuticals for Treating or Preventing Nidoviruses and Picornaviruses” (priority 2020, published 2023).
Where a name gives a salt, the structure may show the parent alone. Read-outs that look alike come from different tables or passages of the source.

What was measured:
[1] = system: OC43; test: Drug screening: OC43 nucleoprotein staining in infected A549-mRuby cells; format: cell-based, human beta coronavirus OC43; conditions: for activity at 10 µM: Betacoronavirus 1, OC43, 96 h
Method in brief: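 A549 cells expressing H2B-mRuby infected with OC43 at MOI 0.3 for 1 h at 33° C, then drugs added at 10 μM final and incubated 4 days at 33° C. Viral nucleoprotein immunostained and imaged; intensity normalized to cell number and no-drug controls (=100). Hits reduced staining >3 SD in both repeats without toxicity.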

[2] = system: A549-mRuby cells; test: Drug screening: effect on cell growth (cell number day 4 / day 0); conditions: 10 μM drug; for Growth_1: number of cells at day 4 divided by number of cells at day 0 / toxic_1: repeat #1; for Growth_2: number of cells at day 4 divided by number of cells at day 0 / toxic_2: repeat #2
Method in brief: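 A549 cells carrying an H2B-mRuby reporter were infected with OC43 at MOI 0.3 for 1 h at 33° C, then given drug at 10 μM final. Cell numbers were counted by imaging at day 0 and again at day 4 after 4 days at 33° C, 5% CO2, with the screen run twice.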

[3] = 10 μM drug, MOI 0.3, 4 days, OC43 staining normalized to no-drug controls, mean of the two screen repeats, read-out: OC43_mean
[4] = 10 μM drug, MOI 0.3, 4 days, normalized to no-drug controls in the same plate, repeat #1, read-out: OC43_1: % staining of OC43 in screen repeat #1
[5] = 10 μM drug, MOI 0.3, 4 days, normalized to no-drug controls in the same plate, repeat #2, read-out: OC43_2: % staining of OC43 in screen repeat #2
[6] = 10 μM drug, MOI 0.3, 4 days, OC43 staining normalized to no-drug controls, mean of the two screen repeats
[7] = 10 μM drug, MOI 0.3, 4 days, normalized to no-drug controls in the same plate, repeat #1
[8] = 10 μM drug, MOI 0.3, 4 days, normalized to no-drug controls in the same plate, repeat #2

| Structure (SMILES) | hit_1 ([1]; 10 μM drug, repeat #1) | hit_2 ([1]; 10 μM drug, repeat #2) | activity at 10 µM [1, 3] | activity at 10 µM [1, 4] | activity at 10 µM [1, 5] | Growth_1: number of cells at day 4 divided by number of cells at day 0 [2] | toxic_1 [2] | Growth_2: number of cells at day 4 divided by number of cells at day 0 [2] | toxic_2 [2] | activity at 10 µM ([1]; read-out: OC43_mean) | activity at 10 µM ([1]; read-out: OC43_mean, 10 μM drug, MOI 0.3, 4 days, OC43 staining normalized to no-drug controls, mean of the two screen repeats) | hit_1 [1] | hit_2 [1] | activity at 10 µM ([1]; read-out: OC43_1: % staining of OC43 in screen repeat #1) | activity at 10 µM ([1]; read-out: OC43_2: % staining of OC43 in screen repeat #2) | OC43_mean [1, 6] | OC43_1: % staining of OC43 in screen repeat #1 [1, 7] | OC43_2: % staining of OC43 in screen repeat #2 [1, 8] |
| --- | --- | --- | --- | --- | --- | --- | --- | --- | --- | --- | --- | --- | --- | --- | --- | --- | --- | --- |
| Cc1ccccc1C(OCCN(C)C)c1ccccc1 (stereo not drawn) [Orphenadrine Hydrochloride] | 1 | 1 | 37.6% | 11.7% | 63.6% | 4.6 | 0 | 5.1 | 0 | – | – | – | – | – | – | – | – | – |
| OCCN1CCN(CCCN2c3ccccc3Sc3ccc(Cl)cc32)CC1 [Perphenazine] | 1 | 1 | 42.8% | 59.8% | 25.8% | 2.2 | 0 | 2.5 | 0 | – | – | – | – | – | – | – | – | – |
| CN1CCN(CCCN2c3ccccc3Sc3ccc(Cl)cc32)CC1 [Prochlorperazine Dimaleate] | 1 | 1 | 22.6% | 20.2% | 25% | 3.1 | 0 | 3.0 | 0 | – | – | – | – | – | – | – | – | – |
| CN(C)CCCN1c2ccccc2Sc2ccccc21 [Promazine hydrochloride] | 1 | 1 | 23% | 23.4% | 22.6% | 4.7 | 0 | 4.7 | 0 | – | – | – | – | – | – | – | – | – |
| CC(CN1c2ccccc2Sc2ccccc21)N(C)C (stereo not drawn) [Promethazine HCl] | 1 | 1 | 24.4% | 19.4% | 29.5% | 3.0 | 0 | 2.4 | 0 | – | – | – | – | – | – | – | – | – |
| CCCOC(C(=O)OC1CCN(C)CC1)(c1ccccc1)c1ccccc1 [Propiverine hydrochloride] | 1 | 1 | 27.3% | 29.5% | 25.2% | 3.0 | 0 | 2.2 | 0 | – | – | – | – | – | – | – | – | – |
| CC(C)NCC(O)COc1cccc2ccccc12 (stereo not drawn) [Propranolol HCl] | 1 | 1 | – | 21.6% | 27.7% | 5.6 | 0 | 4.1 | 0 | 24.7% | – | – | – | – | – | – | – | – |
| CCCc1cc(=O)[nH]c(=S)[nH]1 [Propylthiouracil] | 1 | 1 | – | 44.3% | 55.1% | 3.7 | 0 | 4.2 | 0 | – | 49.7% | – | – | – | – | – | – | – |
| OCCOCCN1CCN(C2=Nc3ccccc3Sc3ccccc32)CC1 [Quetiapine Fumarate] | – | – | – | – | – | 3.6 | 0 | 3.7 | 0 | 48% | – | 1 | 1 | 34.5% | 61.5% | – | – | – |
| CO[C@H]1/C=C/O[C@@]2(C)Oc3c(C)c(O)c4c(c3C2=O)C2=NC3(CCN(CC(C)C)CC3)NC2=C(NC(=O)/C(C)=C\C=C\[C@H](C)[C@H](O)[C@@H](C)[C@@H](O)[C@@H](C)[C@H](OC(C)=O)[C@@H]1C)C4=O [Rifabutin] | 1 | 1 | 41.1% | 25.8% | 56.4% | 5.5 | 0 | 5.3 | 0 | – | – | – | – | – | – | – | – | – |
| CC(N)C12CC3CC(CC(C3)C1)C2 (stereo not drawn) [Rimantadine Hydrochloride] | 1 | 1 | 52.6% | 50.6% | 54.6% | 4.4 | 0 | 5.1 | 0 | – | – | – | – | – | – | – | – | – |
| CC[C@H]1OC(=O)[C@H](C)[C@@H](O[C@H]2C[C@@](C)(OC)[C@@H](O)[C@H](C)O2)[C@H](C)[C@@H](O[C@@H]2O[C@H](C)C[C@H](N(C)C)[C@H]2O)[C@](C)(O)C[C@@H](C)/C(=N\OCOCCOC)[C@H](C)[C@@H](O)[C@]1(C)O [Roxithromycin] | 1 | 1 | 41.4% | 55.8% | 27.1% | 5.2 | 0 | 5.6 | 0 | – | – | – | – | – | – | – | – | – |
| OCc1cc(C(O)CNCCCCCCOCCCCc2ccccc2)ccc1O (stereo not drawn) [Salmeterol Xinafoate] | 1 | 1 | – | 39.3% | 20.4% | 2.9 | 0 | 2.5 | 0 | 29.9% | – | – | – | – | – | – | – | – |
| CN1CCN(CCOc2cc(OC3CCOCC3)c3c(Nc4c(Cl)ccc5c4OCO5)ncnc3c2)CC1 [Saracatinib (AZD0530), Saracatinib] | 1 | 1 | 22.7% | 21.2% | 24.1% | 3.1 | 0 | 4.0 | 0 | – | – | – | – | – | – | – | – | – |
| COc1cccc(CCc2ccccc2OCC(CN(C)C)OC(=O)CCC(=O)O)c1 (stereo not drawn) [Sarpogrelate hydrochloride] | 1 | 1 | 25.9% | 26.8% | 24.9% | 5.0 | 0 | 5.4 | 0 | – | – | – | – | – | – | – | – | – |
| O=C(O[C@H]1CN2CCC1CC2)N1CCc2ccccc2[C@@H]1c1ccccc1 [Solifenacin] | 1 | 1 | 25% | 20.4% | 29.6% | 4.3 | 0 | 3.4 | 0 | – | – | – | – | – | – | – | – | – |
| CN1CCC(COc2cnc(-c3cccc(Cn4nc(-c5cccc(C#N)c5)ccc4=O)c3)nc2)CC1 [Tepotinib (EMD 1214063), Tepotinib] | 1 | 1 | 28.9% | 15.3% | 42.6% | 5.3 | 0 | 5.2 | 0 | – | – | – | – | – | – | – | – | – |
| C[C@@H]1CCN(C(=O)CC#N)C[C@@H]1N(C)c1ncnc2[nH]ccc12.O=C(O)CC(O)(CC(=O)O)C(=O)O [Tofacitinib (CP-690550) Citrate] | 1 | 1 | – | – | – | 4.8 | 0 | 4.7 | 0 | – | – | – | – | – | – | 58.5% | 56.5% | 60.4% |
| CN1CCN(CCCN2c3ccccc3Sc3ccc(C(F)(F)F)cc32)CC1.Cl.Cl [Trifluoperazine 2HCl] | 1 | 1 | – | – | – | 2.3 | 0 | 2.1 | 0 | – | – | – | – | – | – | 31.6% | 33.8% | 29.5% |
| CN1[C@@H]2CC[C@H]1C[C@@H](OC(=O)c1c[nH]c3ccccc13)C2 [Tropisetron HCl] | 1 | 1 | 58% | 52.6% | 63.4% | 5.8 | 0 | 5.5 | 0 | – | – | – | – | – | – | – | – | – |
